Data published in US5756327A, “Recombinant mycobacterial isoleucyl-tRNA synthetase genes, tester strains and assays” (priority 1995, dated 1998).

Tests used:
E. coli IleRS = conditions: Hughes and Mellows, Biochem. J. 176:305-318 (1978); cited from earlier work
[1] = tested on: E. coli DH5α cells expressing the M. tuberculosis IleRS gene (on pKS-56); format: cell-based
[2] = tested on: E. coli cells with the TB GST-IleRS fusion construct, pGX-56; format: cell-based; conditions: as for pKS-56: 40 μg/ml PMA, LB plus ampicillin
[3] = tested on: DH5α cells expressing wild-type IleRS on a plasmid (pKS21); experiment: Pseudomonic acid (PMA) rescue, growth in liquid culture (A600); format: cell-based, E. coli; conditions: LB plus ampicillin media containing 40 μg/ml PMA; 30° C., 36-40 hours

SMILES: C/C(=C\C(=O)OCCCCCCCCC(=O)O)C[C@@H]1OC[C@H](C[C@@H]2O[C@H]2[C@@H](C)[C@H](C)O)[C@@H](O)[C@H]1O [PMA, pseudomonic acid A]
- sensitivity of E. coli IleRS to PMA (E. coli IleRS): extremely sensitive
- inhibition of growth ([1]; LB plus ampicillin media containing 40 μg/ml PMA, 30° C., 36-40 hours): no inhibition of growth
- growth at highest concentration tested ([1]; LB plus ampicillin with 640 μg/ml PMA (higher concentrations were not tested)): continued to grow
- inhibition of growth [2]: Identical results
- inhibition of growth [3]: completely inhibited
